Results from PubChem BioAssay (NCI).
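Compound exposure: 48 hours, 5 concentrations, 96-well plates. Abbreviation: GI50, concentration required for 50% inhibition of growth. TGI denotes the concentration required for complete inhibition of growth.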

Key:
Assay in all cases: NCI tumour cell line growth inhibition, 48 h
CAKI-1 renal = system: CAKI-1 renal
HCT-15 colon = system: HCT-15 colon
M14 melanoma = system: M14 melanoma
NCI-H226 lung = system: NCI-H226 lung
OVCAR-4 ovarian = system: OVCAR-4 ovarian
SF-268 CNS = system: SF-268 CNS
SK-MEL-2 melanoma = system: SK-MEL-2 melanoma
SNB-19 CNS = system: SNB-19 CNS
T-47D breast = system: T-47D breast
U251 CNS = system: U251 CNS

Row | SMILES | TGI (CAKI-1 renal) [µM] | TGI (HCT-15 colon) [µM] | TGI (M14 melanoma) [µM] | TGI (NCI-H226 lung) [µM] | TGI (OVCAR-4 ovarian) [µM] | TGI (SF-268 CNS) [µM] | TGI (SK-MEL-2 melanoma) [µM] | TGI (SNB-19 CNS) [µM] | TGI (T-47D breast) [µM] | TGI (U251 CNS) [µM] | GI50 (CAKI-1 renal) [nM] | GI50 (HCT-15 colon) [nM] | GI50 (M14 melanoma) [nM] | GI50 (NCI-H226 lung) [nM] | GI50 (OVCAR-4 ovarian) [nM] | GI50 (SF-268 CNS) [nM] | GI50 (SK-MEL-2 melanoma) [nM] | GI50 (SNB-19 CNS) [nM] | GI50 (T-47D breast) [nM] | GI50 (U251 CNS) [nM]
1 | NC(C(=O)O)C(N)C(=O)O (stereo not given) | > 100 | > 100 | > 100 | > 100 | > 100 | > 100 | > 100 | > 100 | > 100 | > 100 |  |  |  |  |  |  |  |  |  | 
2 | CS(=O)(=O)c1ccc(C(F)(F)F)cc1NC(=O)Nc1cnc(Oc2ccc(-c3cc(Cl)cnc3N)cc2)nc1 | 22.4 | 13.4 | 4.8 | 26.3 | 12.4 | 10.3 | 5.03 | 34 | 7.7 | 12.3 | 2980 | 2740 | 2020 | 2750 | 2900 | 2390 | 2340 | 2800 | 2050 | 2560
3 | O=[N+]([O-])c1ccc(N(CCO)CCO)c2c1no[n+]2[O-] | 2.36 | 7.06 | 2.76 | 6.59 | 6.62 | 5.02 | 4.78 | 5.9 | 5.46 | 2.37 | 471 | 1560 | 1220 | 2010 | 1650 | 1240 | 1800 | 1760 | 1360 | 655
4 | N#Cc1ccc(-n2cnc(NC(=O)[C@H]3CCN(C#N)C3)c2)cc1 | > 100 | > 100 | 6.28 | 9.85 | 12.5 | 25.5 | 4.09 | 98.7 | 6.86 | > 56.7 | 2480 | 2200 | 757 | 2510 | 1860 | 2830 | 935 | 3510 | 706 | 3290
5 | CCOC(=O)c1cc(C(=O)c2cc(OC)cc(OC)c2)n2ncccc12 | > 100 | > 100 | > 100 | > 100 | > 100 | > 100 | > 100 | > 100 | > 100 | > 100 | 2970 | 587 | 394 | > 100000 | 17000 | 26500 | 738 | 4280 | 17200 | 2000
6 | NC(=O)c1c(OCc2c(F)cc(Br)cc2F)nsc1NC(=O)NCCCCN1CCCC1 | > 10 | > 10 | 3.46 | > 10 | > 10 | > 10 | > 10 | > 10 | > 10 | 5.51 | 2490 | 2850 | 1600 | 453 | > 10000 | 1780 | > 10000 | 2270 | 1180 | 1710
